Assays:
CCRF-CEM = conditions: for GI50: read-out: Median Growth Inhibitory Concentration (GI50), Leukemia, 48 hours
K-562 = conditions: 48 hours; for GI50: read-out: Median Growth Inhibitory Concentration (GI50), K-562, Leukemia
RPMI-8226 = conditions: 48 hours; for GI50: read-out: Median Growth Inhibitory Concentration (GI50), RPMI-8226, Leukemia
SR = conditions: for GI50: read-out: Median Growth Inhibitory Concentration (GI50), Leukemia, 48 hours
HOP-92 = conditions: 48 hours; for GI50: read-out: Median Growth Inhibitory Concentration (GI50), HOP-92, Non-Small Cell Lung Cancer
NCI-H23 = conditions: 48 hours; for GI50: read-out: Median Growth Inhibitory Concentration (GI50), NCI-H23, Non-Small Cell Lung Cancer
NCI-H522 = conditions: 48 hours; for GI50: read-out: Median Growth Inhibitory Concentration (GI50), NCI-H522, Non-Small Cell Lung Cancer
HCT-15 = conditions: 48 hours; for GI50: read-out: Median Growth Inhibitory Concentration (GI50), HCT-15, Colon Cancer
HT29 = conditions: 48 hours; for GI50: read-out: Median Growth Inhibitory Concentration (GI50), HT29, Colon Cancer
KM12 = conditions: 48 hours; for GI50: read-out: Median Growth Inhibitory Concentration (GI50), KM12, Colon Cancer
SF-268 = conditions: 48 hours; for GI50: read-out: Median Growth Inhibitory Concentration (GI50), SF-268, CNS Cancer
SNB-19 = conditions: 48 hours; for GI50: read-out: Median Growth Inhibitory Concentration (GI50), SNB-19, CNS Cancer
SNB-75 = conditions: 48 hours; for GI50: read-out: Median Growth Inhibitory Concentration (GI50), SNB-75, CNS Cancer
U251 = conditions: 48 hours; for GI50: read-out: Median Growth Inhibitory Concentration (GI50), U251, CNS Cancer
M14 = conditions: 48 hours; for GI50: read-out: Median Growth Inhibitory Concentration (GI50), M14, Melanoma
UACC-257 = conditions: 48 hours; for GI50: read-out: Median Growth Inhibitory Concentration (GI50), UACC-257, Melanoma
UACC-62 = conditions: 48 hours; for GI50: read-out: Median Growth Inhibitory Concentration (GI50), UACC-62, Melanoma
OVCAR-3 = conditions: 48 hours; for GI50: read-out: Median Growth Inhibitory Concentration (GI50), OVCAR-3, Ovarian Cancer
OVCAR-5 = conditions: 48 hours; for GI50: read-out: Median Growth Inhibitory Concentration (GI50), OVCAR-5, Ovarian Cancer
SK-OV-3 = conditions: 48 hours; for GI50: read-out: Median Growth Inhibitory Concentration (GI50), SK-OV-3, Ovarian Cancer
786-0 = conditions: 48 hours; for GI50: read-out: Median Growth Inhibitory Concentration (GI50), 786-0, Renal Cancer
A498 = conditions: 48 hours; for GI50: read-out: Median Growth Inhibitory Concentration (GI50), A498, Renal Cancer
ACHN = conditions: for GI50: read-out: Median Growth Inhibitory Concentration (GI50), Renal Cancer, 48 hours
TK-10 = conditions: 48 hours; for GI50: read-out: Median Growth Inhibitory Concentration (GI50), TK-10, Renal Cancer
UO-31 = conditions: 48 hours; for GI50: read-out: Median Growth Inhibitory Concentration (GI50), UO-31, Renal Cancer
MCF-7 = conditions: 48 hours; for GI50: read-out: Median Growth Inhibitory Concentration (GI50), MCF-7, Breast Cancer
MDA-MB-231 = conditions: 48 hours; for GI50: read-out: Median Growth Inhibitory Concentration (GI50), MDA-MB-231, Breast Cancer
HS 578T = conditions: for GI50: read-out: Median Growth Inhibitory Concentration (GI50), Breast Cancer, 48 hours
MDA-MB-435 = conditions: 48 hours; for GI50: read-out: Median Growth Inhibitory Concentration (GI50), MDA-MB-435, Breast Cancer
MDA-N = conditions: for GI50: read-out: Median Growth Inhibitory Concentration (GI50), Breast Cancer, 48 hours
T-47D = conditions: for GI50: read-out: Median Growth Inhibitory Concentration (GI50), Breast Cancer, 48 hours
[1] = read-out: Median Lethal Concentration (LC50), Leukemia, 48 hours, SRB assay
[2] = read-out: Median Lethal Concentration (LC50), Breast Cancer, 48 hours, SRB assay

O=C1C(=Cc2ccccc2O)COCC1=Cc1ccccc1O [EF25, 3,5-Bis(2-hyrdoxybenzylidene)tetrahydro4-H-pyran4-one]
GI50 (CCRF-CEM): 0.3 µM
CC50 (CCRF-CEM; [1]): > 100 µM
GI50 (K-562): 0.6 µM
CC50 (K-562; read-out: Median Lethal Concentration (LC50), Leukemia, K-562, SRB assay): 91.8 µM
GI50 (RPMI-8226): 0.2 µM
CC50 (RPMI-8226; read-out: Median Lethal Concentration (LC50), Leukemia, RPMI-8226, SRB assay): 70.9 µM
GI50 (SR): 0.2 µM
CC50 (SR; [1]): 76.3 µM
GI50 (HOP-92): 2400 nM
CC50 (HOP-92; read-out: Median Lethal Concentration (LC50), Non-Small Cell Lung Cancer, HOP-92, SRB assay): 35.4 µM
GI50 (NCI-H23): 1700 nM
CC50 (NCI-H23; read-out: Median Lethal Concentration (LC50), Non-Small Cell Lung Cancer, NCI-H23, SRB assay): 12.9 µM
GI50 (NCI-H522): 0.9 µM
CC50 (NCI-H522; read-out: Median Lethal Concentration (LC50), Non-Small Cell Lung Cancer, NCI-H522, SRB assay): 14.1 µM
GI50 (HCT-15): 0.7 µM
CC50 (HCT-15; read-out: Median Lethal Concentration (LC50), Colon Cancer, HCT-15, SRB assay): 16.1 µM
GI50 (HT29): 2 µM
CC50 (HT29; read-out: Median Lethal Concentration (LC50), Colon Cancer, HT29, SRB assay): 67.5 µM
GI50 (KM12): 0.3 µM
CC50 (KM12; read-out: Median Lethal Concentration (LC50), Colon Cancer, KM12, SRB assay): 10.7 µM
GI50 (SF-268): 1400 nM
CC50 (SF-268; read-out: Median Lethal Concentration (LC50), CNS Cancer, SF-268, SRB assay): 43.3 µM
GI50 (SNB-19): 2200 nM
CC50 (SNB-19; read-out: Median Lethal Concentration (LC50), CNS Cancer, SNB-19, SRB assay): 37.3 µM
GI50 (SNB-75): 1.8 µM
CC50 (SNB-75; read-out: Median Lethal Concentration (LC50), CNS Cancer, SNB-75, SRB assay): 14 µM
GI50 (U251): 0.7 µM
CC50 (U251; read-out: Median Lethal Concentration (LC50), CNS Cancer, U251, SRB assay): 5.8 µM
GI50 (M14): 1800 nM
CC50 (M14; read-out: Median Lethal Concentration (LC50), Melanoma, M14, SRB assay): 19.4 µM
GI50 (UACC-257): 1.6 µM
CC50 (UACC-257; read-out: Median Lethal Concentration (LC50), Melanoma, UACC-257, SRB assay): 8.2 µM
GI50 (UACC-62): 1.7 µM
CC50 (UACC-62; read-out: Median Lethal Concentration (LC50), Melanoma, UACC-62, SRB assay): 14.4 µM
GI50 (OVCAR-3): 900 nM
CC50 (OVCAR-3; read-out: Median Lethal Concentration (LC50), Ovarian Cancer, OVCAR-3, SRB assay): 23.5 µM
GI50 (OVCAR-5): 1700 nM
CC50 (OVCAR-5; read-out: Median Lethal Concentration (LC50), Ovarian Cancer, OVCAR-5, SRB assay): 8.4 µM
GI50 (SK-OV-3): 2400 nM
CC50 (SK-OV-3; read-out: Median Lethal Concentration (LC50), Ovarian Cancer, SK-OV-3, SRB assay): 26.9 µM
GI50 (786-0): 400 nM
CC50 (786-0; read-out: Median Lethal Concentration (LC50), Renal Cancer, 786-O, SRB assay): 32.6 µM
GI50 (A498): 1.3 µM
CC50 (A498; read-out: Median Lethal Concentration (LC50), Renal Cancer, A498, SRB assay): 6 µM
GI50 (ACHN): 1500 nM
CC50 (ACHN; read-out: Median Lethal Concentration (LC50), Renal Cancer, 48 hours, SRB assay): 18.2 µM
GI50 (TK-10): 2200 nM
CC50 (TK-10; read-out: Median Lethal Concentration (LC50), Renal Cancer, TK-10, SRB assay): 24.6 µM
GI50 (UO-31): 1.2 µM
CC50 (UO-31; read-out: Median Lethal Concentration (LC50), Renal Cancer, UO-31, SRB assay): 68.1 µM
GI50 (MCF-7): 0.3 µM
CC50 (MCF-7; read-out: Median Lethal Concentration (LC50), Breast Cancer, MCF-7, SRB assay): 44.7 µM
GI50 (MDA-MB-231): 1900 nM
CC50 (MDA-MB-231; read-out: Median Lethal Concentration (LC50), Breast Cancer, MDA-MB-231, SRB assay): 17.2 µM
GI50 (HS 578T): 5.1 µM
CC50 (HS 578T; [2]): 72.3 µM
GI50 (MDA-MB-435): 1 µM
CC50 (MDA-MB-435; read-out: Median Lethal Concentration (LC50), Breast Cancer, MDA-MB-435, SRB assay): 16.3 µM
GI50 (MDA-N): 1 µM
CC50 (MDA-N; [2]): 20 µM
GI50 (T-47D): 1.3 µM
CC50 (T-47D; [2]): 92.9 µM

C(=C\c1ccccc1)/S/C=C/c1ccccc1 [EF15]
GI50 (CCRF-CEM): 41.5 µM
GI50 (K-562): 78.5 µM
GI50 (RPMI-8226): 49.8 µM
GI50 (SR): 52 µM
GI50 (HOP-92): > 100000 nM
GI50 (NCI-H23): > 100000 nM
GI50 (NCI-H522): 69.9 µM
GI50 (HCT-15): 49.1 µM
GI50 (HT29): 46.1 µM
GI50 (KM12): 55.7 µM
GI50 (SF-268): > 100000 nM
GI50 (SNB-19): > 100000 nM
GI50 (SNB-75): 98.8 µM
GI50 (U251): 95.1 µM
GI50 (M14): > 100000 nM
GI50 (UACC-257): 55.4 µM
GI50 (UACC-62): 66.7 µM
GI50 (OVCAR-3): > 100000 nM
GI50 (OVCAR-5): > 100000 nM
GI50 (SK-OV-3): > 100000 nM
GI50 (786-0): > 100000 nM
GI50 (A498): 23.3 µM
GI50 (ACHN): > 100000 nM
GI50 (TK-10): > 100000 nM
GI50 (UO-31): 96.8 µM
GI50 (MCF-7): 44.6 µM
GI50 (MDA-MB-231): > 100000 nM
GI50 (HS 578T): > 100 µM
GI50 (MDA-MB-435): 61.2 µM
GI50 (MDA-N): 67.8 µM
GI50 (T-47D): 18.5 µM

From US7371766B2, “Curcumin analogs with anti-tumor and anti-angiogenic properties” (Emory University, priority 1999, dated 2008)
